Assay results from ChEMBL document CHEMBL1150389, “Synthesis and evaluation of heteroaromatic 6,7-diaryl-2,3,8,8a-tetrahydroindolizin-5(1H)-ones for cytotoxicity against the HCT-116 colon cancer cell line” (Bioorg Med Chem Lett, 2008).

Each molecule was assayed on HCT-116 (assay: Cytotoxicity against human HCT116 cells).
Type: functional, cell-based

Q: With `CSc1ccc(C2=C(c3ccco3)C(=O)N3CCCC3C2)cc1` (stereo not drawn) as the molecule, how does the IC50 read?
A: 3 µM

Q: For `COc1ccc(C2=C(c3ccncc3)C(=O)N3CCCC3C2)cc1` (stereo not drawn), which IC50 is on record?
A: 19 µM

Q: With `COc1ccc(C2=C(c3ccco3)C(=O)N3CCCC3C2)cc1` (stereo not drawn) as the molecule, how does the IC50 read?
A: 6 µM

Q: Which IC50 does the source give for `CSc1ccc(C2=C(c3ccoc3)C(=O)N3CCCC3C2)cc1` (stereo not drawn) here?
A: 1.1 µM

Q: Which IC50 does the source give for `COc1ccc(C2=C(c3cccs3)C(=O)N3CCCC3C2)cc1` (stereo not drawn) here?
A: 5 µM

Q: `COc1ccc(C2=C(c3ccsc3)C(=O)N3CCCC3C2)cc1` (stereo not drawn) was tested. Which IC50 did it give?
A: 1.5 µM

Q: How did the IC50 turn out when `CSc1ccc(C2=C(c3cccs3)C(=O)N3CCCC3C2)cc1` (stereo not drawn) was run?
A: 0.27 µM

Q: Which IC50 does the source give for `COc1ccc(C2=C(c3ccoc3)C(=O)N3CCCC3C2)cc1` (stereo not drawn) here?
A: 3 µM

Q: For `COc1ccc(C2=C(c3ccccn3)C(=O)N3CCCC3C2)cc1` (stereo not drawn), which IC50 is on record?
A: 104 µM

Q: Which IC50 does the source give for `CSc1ccc(C2=C(c3ccccc3)C(=O)N3CCCC3C2)cc1` (stereo not drawn) here?
A: 1 µM

Q: Which IC50 does the source give for `CSc1ccc(C2=C(c3ccncc3)C(=O)N3CCCC3C2)cc1` (stereo not drawn) here?
A: 6 µM

Q: For `CSc1ccc(C2=C(c3ccsc3)C(=O)N3CCCC3C2)cc1` (stereo not drawn), which IC50 is on record?
A: 0.6 µM

Q: How did the IC50 turn out when `COc1ccc(C2=C(c3cccnc3)C(=O)N3CCCC3C2)cc1` (stereo not drawn) was run?
A: 79 µM
